Experimental data taken from US20180161314A1, “Methods for Treating Hyperuricemia and Related Diseases” (Ardea Biosciences, Inc., priority 2010, published 2018).

Test system: healthy adult subjects
Experiment: Drug 1 / febuxostat cross-over interaction study in healthy adult subjects (Examples 10-12)
Assay type: in vivo, human
Settings: for % serum uric acid change, Mean: drug 1 200 mg qd, febuxostat 40 mg qd; for Absolute sUA reduction from baseline, Intraday peak / Absolute sUA reduction from baseline, Trough / Percent sUA reduction from baseline, Intraday peak / Percent sUA reduction from baseline, Trough: febuxostat 40 mg alone
Source text: Study Objectives • To compare the multiple-dose pharmacokinetics of febuxostat in the absence versus presence of drug 1 co-administration. • To compare the multiple-dose pharmacokinetics of drug 1 in the absence versus presence of febuxostat co-administration. • To measure the effects of drug 1 and febuxostat, both alone and in combination, on serum uric acid concentrations and amounts of urate excreted into urine. • To evaluate the safety and tolerability of multiple-doses of drug 1 and febuxostat, both alone or in combination.
The study is a two or three-panel, placebo-controlled (for drug 1), double-blinded (for drug 1 and matched placebo), randomized, cross-over study with up to 54 healthy adult subjects. Each panel consisting of 18 subjects is sequentially enrolled, starting with Panel 1 (200 mg once daily dose of drug 1 or placebo), followed by Panel 2 (400 mg once daily dose of drug 1 or placebo), and followed by optional Panel 3 (100 mg to 600 mg once daily dose of drug 1 or placebo). The placebo control is included in this study to better assess safety and tolerability and the serum urate lowering effect of drug 1 in combination with febuxostat. Serum urate levels may be influenced by frequent blood draws and meal contents; therefore, the true effect on serum urate levels can be determined by correcting for placebo (subtract serum urate effect in placebo subjects from serum urate effect in active subjects).
Subjects in each panel are randomly assigned to one of two treatment sequences (Sequence A or B) after all Baseline (Day −1) procedures have been completed. Each treatment sequence within a panel consists of 9 subjects randomly assigned to receive drug 1 (6 of 9 subjects) or matching placebo (3 of 9 subjects) in a double-blinded fashion. For each treatment sequence, single-agent drug treatment is administered on Days 1 to 7 (either open-label febuxostat or double-blinded drug 1 or matched placebo by random assignment), followed by combination treatment on Days 8 to 14, and completing with the alternative single-agent drug treatment on Days 15 to 21, as follows (Panel 1 shown in FIG. 2):
Sequence A: Days 1-7: Febuxostat, 40 mg (once daily) • Days 8 to 14: drug 1, 200 mg or placebo in combination with febuxostat (once daily) • Days 15-21: drug 1, 200 mg, or placebo (once daily) Sequence B: Days 1-7: drug 1, 200 mg, or placebo (once daily) • Days 8 to 14: drug 1, 200 mg or placebo in combination with febuxostat (once daily) • Days 15-21: Febuxostat, 40 mg (once daily) […]
Serial blood samples for PK and PD assessments are collected up to 24 hours after dosing on Days 7, 14, and 21. Urine (total catch) for assays of drug 1, creatinine, and uric acid are collected starting on Day −1 (pre-treatment baseline) and after dosing on Days 7, 14, and 21. Final safety assessments are completed when subjects return to the clinic at 7±1 days after discharge from the clinic on Day 22 (Follow-Up visit on Day 29). The total volume of blood collected from each subject is approximately 518 mL.
Screening procedures to determine subject eligibility are performed 28 days before the first dose of study drug (Day 1). A total of up to 54 subjects enrolled in up to 3 panels consisting of 2 sequences each, with 9 subjects per sequence (18 subjects per panel). Subjects withdrawing after dosing are not replaced.
Subjects in Panel 1 receive a 200 mg dose of drug 1 or placebo once daily for 14 days and a 40 mg dose of febuxostat once daily for 14 days. Subjects in Panel 2 receive a 400 mg dose of drug 1 or placebo once daily for 14 days and a 40 mg dose of febuxostat once daily for 14 days. Subjects in Panel 3 receive a 100-600 mg dose of drug 1 or placebo once daily for 14 days and a 40 mg dose of febuxostat once daily for 14 days.
Subjects in Sequence A begin dosing on Day 1 with febuxostat and take their first dose of drug 1 or placebo on Day 8. […]

[1] = Week 2, Drug 1 200 mg + febuxostat 40 mg combo

Question: Which “serum uric acid change from baseline, daily” value (from here on “serum uric acid change … daily”) (Day 1, Drug 1 200 mg, FBX 40 mg) does the source give for Cc1nc(-c2ccc(OCC(C)C)c(C#N)c2)sc1C(=O)O [Febuxostat, 2-(3-Cyano-4-isobutoxyphenyl)-4-methyl-1,3-thiazole-5-carboxylic acid, reference compound] here?
Answer: The value was −6.4%.

Question: And the “% serum uric acid change, Mean” value (Day 1)?
Answer: Its value is −7.5%.

Question: What about the “serum uric acid change … daily” value (Day 2, Drug 1 200 mg, FBX 40 mg) of the same compound?
Answer: The value was −25.7%.

Question: And the “% serum uric acid change, Mean” value (Day 2)?
Answer: Its value is −23.8%.

Question: What about the “serum uric acid change … daily” value (Day 3, Drug 1 200 mg, FBX 40 mg) of the same compound?
Answer: The value was −33.6%.

Question: And the “% serum uric acid change, Mean” value (Day 3)?
Answer: Its value is −30.5%.

Question: And the “serum uric acid change … daily” value (Day 4, Drug 1 200 mg, FBX 40 mg)?
Answer: The value was −37.8%.

Question: What about the “% serum uric acid change, Mean” value (Day 4) of the same compound?
Answer: The value was −34.5%.

Question: And the “serum uric acid change … daily” value (Day 5, Drug 1 200 mg, FBX 40 mg)?
Answer: Its value is −37.9%.

Question: And the “% serum uric acid change, Mean” value (Day 5)?
Answer: The value was −34.3%.

Question: And the “serum uric acid change … daily” value (Day 6, Drug 1 200 mg, FBX 40 mg)?
Answer: The value was −42.6%.

Question: What about the “% serum uric acid change, Mean” value (Day 6) of the same compound?
Answer: The value was −38.1%.

Question: And the “serum uric acid change … daily” value (Day 7, Drug 1 200 mg, FBX 40 mg)?
Answer: Its value is −44.6%.

Question: And the “% serum uric acid change, Mean” value (Day 7)?
Answer: Its value is −39.0%.

Question: What about the “serum uric acid change … daily” value (Day 8, Drug 1 200 mg, FBX 40 mg, alone or combined as labelled) of the same compound?
Answer: The value was −42.7%.

Question: And the “% serum uric acid change, Mean” value (Day 8)?
Answer: The value was −38.9%.

Question: What about the “serum uric acid change … daily” value (Day 9, Drug 1 200 mg, FBX 40 mg, alone or combined as labelled) of the same compound?
Answer: Its value is −38.1%.

Question: What about the “serum uric acid change … daily” value (Day 10, Drug 1 200 mg, FBX 40 mg, alone or combined as labelled) of the same compound?
Answer: The value was −40%.

Question: What about the “serum uric acid change … daily” value (Day 11, Drug 1 200 mg, FBX 40 mg, alone or combined as labelled) of the same compound?
Answer: Its value is −39.2%.

Question: What about the “serum uric acid change … daily” value (Day 12, Drug 1 200 mg, FBX 40 mg, alone or combined as labelled) of the same compound?
Answer: Its value is −36.9%.

Question: What about the “serum uric acid change … daily” value (Day 13, Drug 1 200 mg, FBX 40 mg, alone or combined as labelled) of the same compound?
Answer: Its value is −36.8%.

Question: What about the “serum uric acid change … daily” value (Day 14, Drug 1 200 mg, FBX 40 mg, alone or combined as labelled) of the same compound?
Answer: The value was −42%.

Question: And the “serum uric acid change … daily” value (Day 15, Drug 1 200 mg, FBX 40 mg, alone or combined as labelled)?
Answer: Its value is −39.1%.

Question: And the “serum uric acid change … daily” value (Day 15, FBX 40 mg after combo)?
Answer: The value was −62.3%.

Question: And the “serum uric acid change … daily” value (Day 16, Drug 1 200 mg alone (week 3), FBX 40 mg alone)?
Answer: Its value is −36.5%.

Question: And the “serum uric acid change … daily” value (Day 16, FBX 40 mg after combo)?
Answer: The value was −50.9%.

Question: And the “serum uric acid change … daily” value (Day 17, Drug 1 200 mg alone (week 3), FBX 40 mg alone)?
Answer: The value was −35.8%.

Question: And the “serum uric acid change … daily” value (Day 17, FBX 40 mg after combo)?
Answer: Its value is −45.6%.

Question: What about the “serum uric acid change … daily” value (Day 18, Drug 1 200 mg alone (week 3), FBX 40 mg alone) of the same compound?
Answer: The value was −36.3%.

Question: What about the “serum uric acid change … daily” value (Day 18, FBX 40 mg after combo) of the same compound?
Answer: The value was −45.7%.

Question: What about the “serum uric acid change … daily” value (Day 19, Drug 1 200 mg alone (week 3), FBX 40 mg alone) of the same compound?
Answer: The value was −33.6%.

Question: And the “serum uric acid change … daily” value (Day 19, FBX 40 mg after combo)?
Answer: The value was −41%.

Question: What about the “serum uric acid change … daily” value (Day 20, Drug 1 200 mg alone (week 3), FBX 40 mg alone) of the same compound?
Answer: Its value is −34.3%.

Question: What about the “serum uric acid change … daily” value (Day 20, FBX 40 mg after combo) of the same compound?
Answer: Its value is −42.9%.

Question: And the “serum uric acid change … daily” value (Day 21, Drug 1 200 mg alone (week 3), FBX 40 mg alone)?
Answer: Its value is −37.6%.

Question: And the “serum uric acid change … daily” value (Day 21, FBX 40 mg after combo)?
Answer: Its value is −49.1%.

Question: What about the “serum uric acid change … daily” value (Day 22, Drug 1 200 mg alone (week 3), FBX 40 mg alone) of the same compound?
Answer: The value was −35.2%.

Question: And the “serum uric acid change … daily” value (Day 22, FBX 40 mg after combo)?
Answer: Its value is −45.7%.

Question: And the “Absolute sUA reduction from baseline, Intraday peak” value (Week 1, Drug 1 200 mg alone)?
Answer: The value was -3.4 mg/dL.

Question: And the “Absolute sUA reduction from baseline, Trough” value (Week 1, Drug 1 200 mg alone)?
Answer: The value was -2.8 mg/dL.

Question: What about the “Percent sUA reduction from baseline, Intraday peak” value (Week 1, Drug 1 200 mg alone) of the same compound?
Answer: Its value is −55.3%.

Question: What about the “Percent sUA reduction from baseline, Trough” value (shortened to “Percent sUA reduction … Trough”) (Week 1, Drug 1 200 mg alone) of the same compound?
Answer: The value was −45.4%.

Question: What about the “Absolute sUA reduction from baseline, Intraday peak” value [1] of the same compound?
Answer: The value was -3.1 mg/dL.

Question: What about the “Absolute sUA reduction from baseline, Trough” value [1] of the same compound?
Answer: Its value is -2.6 mg/dL.

Question: And the “Percent sUA reduction from baseline, Intraday peak” value [1]?
Answer: Its value is −50.1%.

Question: What about the “Percent sUA reduction … Trough” value [1] of the same compound?
Answer: Its value is −41.2%.

Question: What about the “Absolute sUA reduction from baseline, Intraday peak” value (Week 3, Drug 1 200 mg alone) of the same compound?
Answer: The value was -3.3 mg/dL.

Question: What about the “Absolute sUA reduction from baseline, Trough” value (Week 3, Drug 1 200 mg alone) of the same compound?
Answer: Its value is -2.7 mg/dL.

Question: And the “Percent sUA reduction from baseline, Intraday peak” value (Week 3, Drug 1 200 mg alone)?
Answer: Its value is −49.0%.

Question: And the “Percent sUA reduction … Trough” value (Week 3, Drug 1 200 mg alone)?
Answer: The value was −42.1%.
